Measurements: publication PMC5129982, “Screen-identified selective inhibitor of lysine demethylase 5A blocks cancer cell growth and drug resistance” (Oncotarget, 2016)
Where two headings read alike, the source gives them in different places.

Experiments:
FLAG-KDM5A = target: T1, FLAG-KDM5A (Homo sapiens, UniProt P29375); assay: AlphaScreen screen of 8,861 compounds for KDM5A inhibitors; format: biochemical; conditions: 20 μM compound, threshold ~30% inhibition
T1 construct: Sf21 insect cells were infected with baculovirus to express full-length FLAG-KDM5A; made in house; host or cells: Sf21 insect cells (baculovirus)
Text: The screen (see schematic in Figure 2A) included 8,861 compounds from selected small molecule libraries, including drugs approved for use in the clinic and diverse collections of compounds representing broad pharmacophore diversity and bioavailability. […] An inhibition threshold of three standard deviations (about 30% inhibition) identified 257 compounds. A counter-screen was used to eliminate any compounds that interfered with the assay itself by detecting the luminescent signal in the presence of the compound and positive control H3K4me2 peptide. The counter-screen validated 170 compounds. We chose 48 compounds from this list for dose-response analysis, including 42 of the top 44 compounds with the highest potency at 20 μM and 6 compounds with drug-like structures.
8,861 compounds from the ChemBridge MW-Set, ChemBridge DIVERSet, MicroSource Gen-Plus, MicroSource Pure Natural Products, NIH Clinical Collection, and Enzo Epigenetics libraries were screened for inhibition of FLAG-KDM5A demethylase activity. Compounds were dissolved in DMSO and added at 20 μM to 384-well white plates (Corning 3574) containing 64 nM bio-H3K4me3 peptide in demethylase buffer prior to addition of 13 nM FLAG-KDM5A. Hits were selected at a threshold of three standard deviations (~30% inhibition). A counter-screen was performed with the hits to eliminate any non-specific compounds. For this, 20 μM compounds were added to 64 nM bio-H3K4me2 peptide in demethylase buffer with no enzyme. Any hits that interfered with the positive signal detection were eliminated. Dose-response curves were performed on selected hits using 0.1–11 μM of compound. Further validation of top hits was performed using 5 μM of each compound or a dose-response curve using 0.05–50 μM of the compound.

[1] = target: FLAG-tagged full-length KDM5A (lysine demethylase 5A) (UniProt P29375)
full-length FLAG-KDM5A = target: T2, full-length FLAG-KDM5A (Homo sapiens, UniProt P29375); assay: AlphaScreen KDM5A demethylation assay; format: biochemical; conditions: for Km: cofactor of KDM5A demethylation, 24 nM FLAG-KDM5A, read-out: average apparent Km
T2 construct: Sf21 insect cells were infected with baculovirus to express full-length FLAG-KDM5A; made in house; host or cells: Sf21 insect cells (baculovirus)
Text: AlphaScreen technology (PerkinElmer) was utilized to perform a screen for small molecule inhibitors of KDM5A. The assay was comprised of two steps, a demethylation reaction followed by detection of the product. A biotinylated H3K4me3 peptide was used as substrate in the demethylation reaction with KDM5A in the presence or absence of small molecule inhibitors. The presence of peptide product (H3K4me1/2) was detected using a product-specific antibody and beads. For this, acceptor beads coated in protein A bound to the antibody, which recognized the peptide product. Donor beads coated in streptavidin bound biotin on the peptide substrate. If the demethylation reaction occurred, the beads were in very close proximity and laser excitation of the donor beads at 680nm caused a transfer of energy in the form of reactive singlet oxygen, resulting in emission by the acceptor beads between 520–620 nm ([30, 31], Figure 1A). The luminescent signal detected was a proxy for the amount of demethylation that occurred.
Reactions were carried out for 1 hour, or were stopped by addition of 30 mM EDTA every 5 minutes for determining enzyme kinetics. Km values were calculated using the Michaelis-Menten non-linear regression analysis on GraphPad Prism 6.0 software. The concentration of DMSO in demethylation reactions was 0.05%. For reactions with catalase, catalase (Sigma C30) or an equal volume of dilution buffer was added to the peptide-containing buffer before addition of the demethylase. The final concentration of catalase in the reactions was 0.01 mg/ml.
(§1) The AlphaScreen general IgG (protein A) detection kit from PerkinElmer Life Sciences was used as described previously. The luminescence emission was recorded at 570 nm using the AlphaScreen optic module on a Pherastar (BMG Labtech) or Envision (PerkinElmer Life Sciences) microplate reader.
IC50 values were calculated by log transformation and non-linear regression log(inhibitor) versus response(three parameters) using Graphpad Prism 6.0 software.

[2] = target: T3, FLAG-KDM6B (1043-1682) (JMJD3) (Homo sapiens, UniProt O15054); assay: AlphaScreen KDM6B demethylation assay; format: biochemical
T3 construct: FLAG-KDM6B (1043-1682) was purchased from BPS Bioscience (50115); FLAG (N); purchased BPS Bioscience 50115
Experimental: (§2) Histone demethylase assays were performed as described previously, with the exception of all enzyme reactions containing 125 μM α-KG. Enzymes were used at the following approximate concentrations in validation experiments, chosen based on their activity in AlphaScreen assays: 19 nM FLAG-KDM5A, 15 nM FLAG-KDM5B, 6 nM FLAG-KDM5C, 29 nM His-FLAG-KDM6A, and 16 nM FLAG-KDM6B. 24 nM FLAG-KDM5A was used for Km determination experiments. Reactions were carried out for 1 hour, or were stopped by addition of 30 mM EDTA every 5 minutes for determining enzyme kinetics. Km values were calculated using the Michaelis-Menten non-linear regression analysis on GraphPad Prism 6.0 software. The concentration of DMSO in demethylation reactions was 0.05%. For reactions with catalase, catalase (Sigma C30) or an equal volume of dilution buffer was added to the peptide-containing buffer before addition of the demethylase. The final concentration of catalase in the reactions was 0.01 mg/ml.
as §1

FLAG-KDM5B = target: T4, FLAG-KDM5B (Homo sapiens, UniProt Q9UGL1); assay: AlphaScreen KDM5B demethylation assay; format: biochemical
T4 construct: Full-length FLAG-KDM5B, FLAG-KDM5C, and His-FLAG-KDM6A production was detailed previously; FLAG (N); made in house
Experimental: as §2, §1

His-FLAG-KDM6A (UTX) = target: T5, His-FLAG-KDM6A (UTX) (Homo sapiens, UniProt O15550); assay: AlphaScreen KDM6A demethylation assay; format: biochemical
T5 construct: Full-length FLAG-KDM5B, FLAG-KDM5C, and His-FLAG-KDM6A production was detailed previously; His (N); FLAG (N); made in house
Experimental: as §2, §1

FLAG-KDM5C = target: T6, FLAG-KDM5C (Homo sapiens, UniProt P41229); assay: AlphaScreen KDM5C demethylation assay; format: biochemical
T6 construct: Full-length FLAG-KDM5B, FLAG-KDM5C, and His-FLAG-KDM6A production was detailed previously; FLAG (N); made in house
Experimental: as §2, §1

[3] = tested on: H3K4 methylation in MCF7 cells; assay: Western blot of global H3K4 methylation, MCF7; format: cell-based, human; conditions: 48 hr
Experimental: (§3) Cells were lysed as described previously. Histones were separated by centrifugation, resuspended in Laemmeli buffer, and sonicated. Protein concentration of cell lysates was measured by Bradford assay. Samples in Laemmeli buffer were boiled 10 minutes at 95°C and loaded onto 7% (whole cell lysates) or 18% (histones) SDS-PAGE gels. Membranes were blocked in 4% non-fat milk in Tris-buffered saline with 0.05% Tween (TBS-T) and incubated with primary antibodies in the same buffer or 5% bovine serum albumin in TBS-T overnight at 4°C. Membranes were incubated with secondary anti-rabbit or anti-mouse antibodies for one hour at room temperature. Blots were visualized by Thermo Scientific Pierce ECL Western Blotting Substrate (32106) or EMD Millipore Immobilon Western Chemiluminescent HRP Substrate (WBKLS0100) on film. Signal was quantified using ImageJ software.

[4] = tested on: H3K4 methylation in HeLa cells; assay: Western blot of global H3K4 methylation, HeLa; format: cell-based, human; conditions: HeLa, 48 hr
Experimental: as §3

T2 sequence (P29375 whole entry): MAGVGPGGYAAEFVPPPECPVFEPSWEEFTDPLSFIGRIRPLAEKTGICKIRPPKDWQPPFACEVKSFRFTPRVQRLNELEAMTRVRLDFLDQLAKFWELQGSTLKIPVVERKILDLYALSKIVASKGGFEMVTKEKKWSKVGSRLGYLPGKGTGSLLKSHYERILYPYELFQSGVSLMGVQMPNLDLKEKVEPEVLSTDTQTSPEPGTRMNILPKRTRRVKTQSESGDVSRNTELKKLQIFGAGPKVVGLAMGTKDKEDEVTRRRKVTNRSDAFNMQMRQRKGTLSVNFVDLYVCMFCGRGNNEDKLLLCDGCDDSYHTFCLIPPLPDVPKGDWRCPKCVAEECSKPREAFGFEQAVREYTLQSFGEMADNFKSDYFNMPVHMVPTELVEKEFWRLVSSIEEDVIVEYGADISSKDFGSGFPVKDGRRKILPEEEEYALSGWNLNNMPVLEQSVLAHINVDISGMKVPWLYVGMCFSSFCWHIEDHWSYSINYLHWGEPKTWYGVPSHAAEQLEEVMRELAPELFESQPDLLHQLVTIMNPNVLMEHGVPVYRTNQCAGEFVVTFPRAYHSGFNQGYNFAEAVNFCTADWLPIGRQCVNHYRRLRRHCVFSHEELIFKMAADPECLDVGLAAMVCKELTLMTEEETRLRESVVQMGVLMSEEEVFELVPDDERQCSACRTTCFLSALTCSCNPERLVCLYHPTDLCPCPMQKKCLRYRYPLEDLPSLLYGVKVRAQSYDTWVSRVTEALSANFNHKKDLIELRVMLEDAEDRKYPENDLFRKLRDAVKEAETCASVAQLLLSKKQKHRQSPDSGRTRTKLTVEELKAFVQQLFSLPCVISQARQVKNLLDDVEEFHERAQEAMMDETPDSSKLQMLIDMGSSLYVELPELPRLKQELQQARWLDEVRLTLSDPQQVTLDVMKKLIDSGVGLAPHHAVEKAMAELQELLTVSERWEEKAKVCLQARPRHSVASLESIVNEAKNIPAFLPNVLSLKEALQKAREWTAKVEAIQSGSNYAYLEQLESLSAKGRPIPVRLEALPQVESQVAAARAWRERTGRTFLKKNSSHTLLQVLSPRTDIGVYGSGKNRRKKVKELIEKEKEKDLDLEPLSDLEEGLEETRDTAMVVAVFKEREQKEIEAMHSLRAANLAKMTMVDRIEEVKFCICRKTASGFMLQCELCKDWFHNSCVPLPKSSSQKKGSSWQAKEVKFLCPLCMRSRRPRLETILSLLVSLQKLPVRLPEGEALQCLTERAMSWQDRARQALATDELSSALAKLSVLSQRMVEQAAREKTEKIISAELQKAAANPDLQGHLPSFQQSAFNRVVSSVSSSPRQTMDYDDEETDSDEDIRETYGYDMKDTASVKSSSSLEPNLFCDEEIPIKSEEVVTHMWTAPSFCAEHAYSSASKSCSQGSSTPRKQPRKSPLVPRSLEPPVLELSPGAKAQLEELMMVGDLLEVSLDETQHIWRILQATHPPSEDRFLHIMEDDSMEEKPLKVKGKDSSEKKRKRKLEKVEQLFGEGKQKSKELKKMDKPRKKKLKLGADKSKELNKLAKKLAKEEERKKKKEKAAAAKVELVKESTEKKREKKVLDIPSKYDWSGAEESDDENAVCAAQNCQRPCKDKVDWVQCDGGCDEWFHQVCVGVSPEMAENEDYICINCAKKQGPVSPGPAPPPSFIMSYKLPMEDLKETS
T1 sequence (P29375 whole entry): as above
T6 sequence (P41229 whole entry): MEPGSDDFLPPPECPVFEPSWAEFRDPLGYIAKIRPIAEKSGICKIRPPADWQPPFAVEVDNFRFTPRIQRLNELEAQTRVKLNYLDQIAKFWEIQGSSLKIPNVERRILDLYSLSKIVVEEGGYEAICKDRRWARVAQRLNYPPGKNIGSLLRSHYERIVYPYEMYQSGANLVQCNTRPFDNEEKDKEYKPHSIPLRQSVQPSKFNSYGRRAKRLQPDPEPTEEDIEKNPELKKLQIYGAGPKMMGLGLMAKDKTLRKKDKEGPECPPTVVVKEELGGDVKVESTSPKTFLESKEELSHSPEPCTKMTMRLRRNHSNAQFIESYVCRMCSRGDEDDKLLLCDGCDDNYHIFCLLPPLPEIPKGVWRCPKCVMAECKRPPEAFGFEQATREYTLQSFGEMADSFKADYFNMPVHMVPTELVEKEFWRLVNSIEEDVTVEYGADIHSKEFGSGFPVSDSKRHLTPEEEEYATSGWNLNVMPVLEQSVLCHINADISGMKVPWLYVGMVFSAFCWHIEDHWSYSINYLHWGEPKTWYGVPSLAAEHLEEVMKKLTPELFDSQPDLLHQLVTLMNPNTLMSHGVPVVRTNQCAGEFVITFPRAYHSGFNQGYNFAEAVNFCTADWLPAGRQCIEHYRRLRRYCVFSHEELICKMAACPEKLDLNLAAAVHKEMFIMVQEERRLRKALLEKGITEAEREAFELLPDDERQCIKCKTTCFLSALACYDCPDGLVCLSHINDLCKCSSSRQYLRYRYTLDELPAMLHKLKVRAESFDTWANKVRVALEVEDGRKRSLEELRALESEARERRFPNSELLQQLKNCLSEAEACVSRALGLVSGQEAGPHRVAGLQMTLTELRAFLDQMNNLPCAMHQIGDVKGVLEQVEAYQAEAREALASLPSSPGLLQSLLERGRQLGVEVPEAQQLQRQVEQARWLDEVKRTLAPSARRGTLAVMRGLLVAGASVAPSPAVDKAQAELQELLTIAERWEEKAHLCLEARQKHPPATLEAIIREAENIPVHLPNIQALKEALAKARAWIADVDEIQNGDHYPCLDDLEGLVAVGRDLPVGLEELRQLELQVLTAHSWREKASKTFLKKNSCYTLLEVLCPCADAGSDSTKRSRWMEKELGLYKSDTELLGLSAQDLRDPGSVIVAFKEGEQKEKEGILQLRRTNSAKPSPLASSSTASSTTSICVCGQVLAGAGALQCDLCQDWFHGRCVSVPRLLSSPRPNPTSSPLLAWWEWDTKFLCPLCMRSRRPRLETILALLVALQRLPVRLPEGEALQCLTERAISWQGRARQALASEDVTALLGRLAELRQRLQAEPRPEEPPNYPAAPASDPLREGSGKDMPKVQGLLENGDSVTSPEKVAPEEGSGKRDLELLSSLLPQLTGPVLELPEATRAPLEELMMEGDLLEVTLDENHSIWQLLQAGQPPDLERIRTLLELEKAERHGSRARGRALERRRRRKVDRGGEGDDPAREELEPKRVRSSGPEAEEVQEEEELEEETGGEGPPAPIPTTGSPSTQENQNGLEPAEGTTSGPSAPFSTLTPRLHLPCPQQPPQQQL
T4 sequence (Q9UGL1 whole entry): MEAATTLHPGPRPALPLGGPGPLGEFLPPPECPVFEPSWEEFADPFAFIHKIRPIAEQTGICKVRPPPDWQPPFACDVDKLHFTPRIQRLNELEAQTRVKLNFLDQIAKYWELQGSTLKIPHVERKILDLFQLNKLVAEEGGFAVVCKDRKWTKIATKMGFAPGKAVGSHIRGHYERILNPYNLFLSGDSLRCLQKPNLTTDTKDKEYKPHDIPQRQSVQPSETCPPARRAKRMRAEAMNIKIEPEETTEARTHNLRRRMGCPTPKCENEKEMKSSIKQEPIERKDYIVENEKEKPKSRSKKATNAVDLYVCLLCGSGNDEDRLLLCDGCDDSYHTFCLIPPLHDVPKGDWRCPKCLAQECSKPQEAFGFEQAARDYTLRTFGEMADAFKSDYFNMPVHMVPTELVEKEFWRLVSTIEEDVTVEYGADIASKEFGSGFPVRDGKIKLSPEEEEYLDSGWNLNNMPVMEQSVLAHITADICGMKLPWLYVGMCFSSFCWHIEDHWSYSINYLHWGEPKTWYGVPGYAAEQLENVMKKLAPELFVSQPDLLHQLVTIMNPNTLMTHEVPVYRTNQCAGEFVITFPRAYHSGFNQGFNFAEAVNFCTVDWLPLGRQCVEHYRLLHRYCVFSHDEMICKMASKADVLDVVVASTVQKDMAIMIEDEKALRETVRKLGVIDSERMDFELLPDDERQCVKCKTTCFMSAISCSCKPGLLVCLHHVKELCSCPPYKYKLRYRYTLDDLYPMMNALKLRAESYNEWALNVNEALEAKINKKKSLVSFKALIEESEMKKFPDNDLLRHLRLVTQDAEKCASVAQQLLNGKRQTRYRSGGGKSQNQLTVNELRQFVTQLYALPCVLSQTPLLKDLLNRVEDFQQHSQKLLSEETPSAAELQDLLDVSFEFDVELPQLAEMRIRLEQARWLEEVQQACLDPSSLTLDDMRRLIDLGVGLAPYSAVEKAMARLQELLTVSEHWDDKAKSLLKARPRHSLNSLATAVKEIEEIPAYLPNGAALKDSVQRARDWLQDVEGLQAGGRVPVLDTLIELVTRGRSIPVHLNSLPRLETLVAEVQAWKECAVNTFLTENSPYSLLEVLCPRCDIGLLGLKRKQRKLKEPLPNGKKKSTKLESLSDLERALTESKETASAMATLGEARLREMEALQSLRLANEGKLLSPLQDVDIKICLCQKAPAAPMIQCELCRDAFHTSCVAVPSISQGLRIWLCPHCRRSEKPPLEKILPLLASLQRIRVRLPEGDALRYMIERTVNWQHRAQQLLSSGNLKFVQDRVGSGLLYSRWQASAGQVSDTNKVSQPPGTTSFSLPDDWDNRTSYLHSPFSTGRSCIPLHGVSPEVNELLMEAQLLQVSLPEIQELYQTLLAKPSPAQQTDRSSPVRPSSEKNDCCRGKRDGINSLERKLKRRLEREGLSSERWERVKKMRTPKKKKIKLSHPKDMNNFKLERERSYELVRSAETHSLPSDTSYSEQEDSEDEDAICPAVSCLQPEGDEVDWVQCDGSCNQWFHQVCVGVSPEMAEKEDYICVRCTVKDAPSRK
Sequence of FLAG-tagged full-length KDM5A (lysine demethylase 5A) (P29375 whole entry): as the sequence (P29375 whole entry) above

N[C@@H](Cc1ccc(O)c(O)c1)C(=O)O [levodopa]
outcome in the KDM5A inhibitor screen (FLAG-KDM5A): active hits

O=C(O)c1ccnc(C(=O)O)c1 [2,4-PDCA, 2,4-pyridinedicarboxylic acid]
outcome in the KDM5A inhibitor screen (FLAG-KDM5A): active hits

C[C@](N)(Cc1ccc(O)c(O)c1)C(=O)O [methyldopa]
outcome in the KDM5A inhibitor screen (FLAG-KDM5A): active hits

biotinylated H3K4me3 peptide
average apparent Km of the H3K4me3 peptide: rate of the demethylation reaction over increasing peptide concentrations, product detected by AlphaScreen (24 nM FLAG-KDM5A) [1]: 0.028 µM

O=C(O)/C=C/c1ccc(O)c(O)c1 [caffeic acid]
outcome in the KDM5A inhibitor screen (FLAG-KDM5A): active hits

C[C@@](Cc1ccc(O)c(O)c1)(NN)C(=O)O [carbidopa]
outcome in the KDM5A inhibitor screen (FLAG-KDM5A): active hits

[Fe+2] [Fe(II)]
Km (full-length FLAG-KDM5A): ~3 µM

O=C(O)CCC(=O)C(=O)O [α-ketoglutarate]
Km (full-length FLAG-KDM5A; listed as α-KG): ~7 µM

C=CCn1c(S)nnc1CNC(=O)c1cccc(C)c1 [YUKA2, N-[(4-allyl-5-mercapto-4H-1,2,4-triazol-3-yl)methyl]-3-methylbenzamide]
IC50 [2]: > 50 µM
IC50 (FLAG-KDM5B; AlphaScreen): > 50 µM
activity against KDM5B (FLAG-KDM5B; at 50 μM): no activity
IC50 (His-FLAG-KDM6A (UTX)): > 50 µM
fold less active against KDM5C (than KDM5A) (FLAG-KDM5C): ~5 fold
IC50 (FLAG-KDM5C; AlphaScreen): 6.56 µM
mode of inhibition with respect to Fe(II) (full-length FLAG-KDM5A): uncompetitive with respect to Fe(II)
change of IC50 over a 16-fold range of α-KG concentrations (full-length FLAG-KDM5A; 150 nM H3K4me3 peptide, 50 μM Fe(II)): did not change significantly
enzyme inhibition at low Fe(II) (full-length FLAG-KDM5A; 5 μM Fe(II)): too weak to generate robust IC50 curves
effect of catalase on inhibitory potency against KDM5A (full-length FLAG-KDM5A; 0.01 mg/ml catalase): did not affect
IC50 (full-length FLAG-KDM5A; AlphaScreen, 1 hour reaction, 0.05–50 μM compound): 1.32 µM
H3K4me3 Fold (H3K4me3/Total H3, normalized to DMSO) ([3]; MCF7, 50 μM): 0.9
H3K4me3 Fold (H3K4me3/Total H3, normalized to DMSO) ([3]; MCF7, 100 μM): 0.8
H3K4me3 Fold (H3K4me3/Total H3, normalized to DMSO) ([4]; 50 μM): 1.6
H3K4me3 Fold (H3K4me3/Total H3, normalized to DMSO) ([4]; 100 μM): 1.7

Cc1ccc(-n2sc3ccccc3c2=O)cc1 [PBIT, 2-4(4-methylphenyl)-1,2-benzisothiazol-3(2H)-one]
outcome in the KDM5A inhibitor screen (FLAG-KDM5A): active hits

[Cl-].[Cl-].[Zn+2] [ZnCl2, Zinc chloride]
concentration above which FLAG-KDM5A was sensitive (full-length FLAG-KDM5A; titration in the demethylation reaction): above 2 μM

[Cl-].[Na+] [NaCl, sodium chloride]
concentration above which FLAG-KDM5A showed little activity (full-length FLAG-KDM5A; salt titration in the demethylation reaction): more than 50 mM
